Assay results from US11608335B2, “Somatostatin modulators and uses thereof” (CRINETICS PHARMACEUTICALS, INC., priority 2018, dated 2023).

The compounds below were run against human somatostatin receptor subtype 5 (Homo sapiens, UniProt P35346) (assay: cAMP assay for SST5R (inhibition of cAMP via human SST5 receptor)). Details: not given.
Chain of human somatostatin receptor subtype 5 (P35346 whole entry): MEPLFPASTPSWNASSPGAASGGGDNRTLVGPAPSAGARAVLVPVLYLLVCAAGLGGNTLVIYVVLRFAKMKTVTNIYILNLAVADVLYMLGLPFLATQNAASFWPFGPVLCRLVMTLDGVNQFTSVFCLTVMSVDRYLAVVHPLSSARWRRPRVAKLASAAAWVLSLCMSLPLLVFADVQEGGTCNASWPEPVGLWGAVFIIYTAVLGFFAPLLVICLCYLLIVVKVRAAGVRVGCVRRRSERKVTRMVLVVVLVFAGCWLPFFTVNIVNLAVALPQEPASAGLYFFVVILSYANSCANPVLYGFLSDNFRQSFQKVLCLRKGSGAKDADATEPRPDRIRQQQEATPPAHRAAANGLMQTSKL
Compound `CNC(=O)c1cccc(-c2cncc(-c3nc4cccc(F)c4[nH]3)c2N2CCC(C)(N)C2)c1` (stereo not drawn) [Compound 2-19, 3-[4-(3-amino-3-methylpyrrolidin-1-yl)-5-(4-fluoro-1H-1,3-benzodiazol-2-yl)pyridin-3-yl]-N-methylbenzamide] has an EC50 of 10 to 100 nM.
`N#CCn1c(-c2cncc(-c3cc(F)cc(C#N)c3)c2N2CC[C@H](N)C2)nc2ccccc21` [Compound 2-113, 3-{4-[(3S)-3-aminopyrrolidin-1-yl]-5-[1-(cyanomethyl)-1H-1,3-benzodiazol-2-yl]pyridin-3-yl}-5-fluorobenzonitrile] was tested, and the EC50 was 100 to 1000 nM.
For `Cc1ccc(F)c2nc(-c3cncc(-c4cc(F)cc(C(N)=O)c4)c3N3CC[C@H](N)C3)[nH]c12` [Compound 2-96, 3-{4-[(3S)-3-aminopyrrolidin-1-yl]-5-(7-fluoro-4-methyl-1H-1,3-benzodiazol-2-yl)pyridin-3-yl}-5-fluorobenzamide], the EC50 was < 10 nM.
Compound `N#Cc1cc(-c2cncc(-c3nc4cccc(F)c4[nH]3)c2N2CC[C@H](N)C2)ccc1O` [Compound 2-36, 5-{4-[(3S)-3-aminopyrrolidin-1-yl]-5-(4-fluoro-1H-1,3-benzodiazol-2-yl)pyridin-3-yl}-2-hydroxybenzonitrile] has an EC50 of 100 to 1000 nM.
For `C[C@]1(N)CCN(c2c(-c3ccc(F)c(C#N)c3)cncc2-c2nc3ncc(F)cc3[nH]2)C1` [Compound 2-168, 5-{4-[(3S)-3-amino-3-methylpyrrolidin-1-yl]-5-{6-fluoro-1H-imidazo[4,5-b]pyridin-2-yl}pyridin-3-yl}-2-fluorobenzonitrile], the EC50 was < 10 nM.
`NCC1CN(c2c(-c3ccccc3)cncc2-c2nc3c(F)cc(F)cc3[nH]2)C1` [Compound 1-27, 1-{1-[3-(4,6-difluoro-1H-1,3-benzodiazol-2-yl)-5-phenylpyridin-4-yl]azetidin-3-yl}methanamine] gave an EC50 of 10 to 100 nM.
`Cc1ccc(-c2cncc(-c3nc4cc(F)cc(F)c4[nH]3)c2N2CC(CN)C2)cc1` [Compound 1-31, 1-{1-[3-(4,6-difluoro-1H-1,3-benzodiazol-2-yl)-5-(4-methylphenyl)pyridin-4-yl]azetidin-3-yl}methanamine] gave an EC50 of 10 to 100 nM.
Compound `NCC1CN(c2c(-c3nc4cc(F)cc(F)c4[nH]3)cncc2-c2cccc3ccccc23)C1` [Compound 1-52, 1-{1-[3-(4,6-difluoro-1H-1,3-benzodiazol-2-yl)-5-(naphthalen-1-yl)pyridin-4-yl]azetidin-3-yl}methanamine] has an EC50 of 10 to 100 nM.
For `CC(N)C1CN(c2c(-c3nc4cc(F)cc(F)c4[nH]3)cncc2-c2cccc(F)c2Cl)C1` (stereo not drawn) [Compound 1-74, 1-{1-[3-(2-chloro-3-fluorophenyl)-5-(4,6-difluoro-1H-1,3-benzodiazol-2-yl)pyridin-4-yl]azetidin-3-yl}ethan-1-amine], the EC50 was < 10 nM.
With `CS(=O)(=O)c1cc(F)cc(-c2cncc(-c3nc4cccc(F)c4[nH]3)c2N2CC[C@H](N)C2)c1` [Compound 2-92, (3S)-1-[3-(4-fluoro-1H-1,3-benzodiazol-2-yl)-5-(3-fluoro-5-methanesulfonylphenyl)pyridin-4-yl]pyrrolidin-3-amine] the EC50 was 10 to 100 nM.
In the case of `N#Cc1cccc(-c2cncc(-c3nc4c(F)cccc4[nH]3)c2N2C[C@@H](N)[C@H](C(N)=O)C2)c1` (racemic) [Compound 2-69, trans-4-amino-1-[3-(3-cyanophenyl)-5-(4-fluoro-1H-1,3-benzodiazol-2-yl)pyridin-4-yl]pyrrolidine-3-carboxamide], the EC50 is reported as > 1000 nM.
In the case of `COc1cc(F)cc2nc(-c3cncc(-c4cc(C)cc(F)c4)c3N3CC(CN)C3)[nH]c12` [Compound 1-15, 1-{1-[3-(6-fluoro-4-methoxy-1H-1,3-benzodiazol-2-yl)-5-(3-fluoro-5-methylphenyl)pyridin-4-yl]azetidin-3-yl}methanamine], the EC50 is reported as 10 to 100 nM.
`Cc1cc(F)cc(-c2cncc(-c3nc4cc(C#N)ccc4[nH]3)c2N2CC(CN)C2)c1` [Compound 1-8, 2-{4-[3-(aminomethyl)azetidin-1-yl]-5-(3-fluoro-5-methylphenyl)pyridin-3-yl}-1H-1,3-benzodiazole-5-carbonitrile] was tested, and the EC50 was 100 to 1000 nM.
`Cn1c(-c2cncc(-c3ccnc(C#N)c3)c2N2CC[C@](C)(N)C2)nc2c(Cl)cccc21` [Compound 2-151, 4-[(3S)-3-amino-3-methylpyrrolidin-1-yl]-5-(4-chloro-1-methyl-1H-1,3-benzodiazol-2-yl)-[3,4′-bipyridine]-2′-carbonitrile] was tested, and the EC50 was < 10 nM.
`Cc1cccc(-c2cncc(-c3nc4cc(F)cc(F)c4[nH]3)c2N2CC(CN)C2)c1F` [Compound 1-67, 1-{1-[3-(4,6-difluoro-1H-1,3-benzodiazol-2-yl)-5-(2-fluoro-3-methylphenyl)pyridin-4-yl]azetidin-3-yl}methanamine] gave an EC50 of 100 to 1000 nM.
For `Cc1cccc2nc(-c3cncc(-c4ccnc(C(N)=O)c4)c3N3CCC(C)(N)C3)[nH]c12` (stereo not drawn) [Compound 2-105, 4-(3-amino-3-methylpyrrolidin-1-yl)-5-(4-methyl-1H-1,3-benzodiazol-2-yl)-[3,4′-bipyridine]-2′-carboxamide], the EC50 was 10 to 100 nM.
In the case of `NCC1CN(c2c(-c3cc(F)cc(F)c3)cncc2-c2nc3cc(F)cc(F)c3[nH]2)C1` [Compound 1-21, 1-{1-[3-(4,6-difluoro-1H-1,3-benzodiazol-2-yl)-5-(3,5-difluorophenyl)pyridin-4-yl]azetidin-3-yl}methanamine], the EC50 is reported as < 10 nM.
`CC(N)C1CN(c2c(-c3nc4cc(F)cc(F)c4[nH]3)cncc2-c2cccc(F)c2O)C1` (stereo not drawn) [Compound 1-75, 2-{4-[3-(1-aminoethyl)azetidin-1-yl]-5-(4,6-difluoro-1H-1,3-benzodiazol-2-yl)pyridin-3-yl}-6-fluorophenol] was tested, and the EC50 was 10 to 100 nM.
With `CC1(N)CCN(c2c(-c3ccnc(C#N)c3)cncc2-c2nc3cccc(C#N)c3[nH]2)C1` (stereo not drawn) [Compound 2-160, 4-(3-amino-3-methylpyrrolidin-1-yl)-5-(4-cyano-1H-1,3-benzodiazol-2-yl)-[3,4′-bipyridine]-2′-carbonitrile] the EC50 was < 10 nM.
With `Cc1cccc2nc(-c3cncc(-c4cc(F)cc(C#N)c4)c3N3CC[C@](N)(CO)C3)[nH]c12` [Compound 2-136, 3-{4-[(3R)-3-amino-3-(hydroxymethyl)pyrrolidin-1-yl]-5-(4-methyl-1H-1,3-benzodiazol-2-yl)pyridin-3-yl}-5-fluorobenzonitrile] the EC50 was 10 to 100 nM.
For `CC1(N)CCN(c2c(-c3cccc(-n4ccnc4)c3)cncc2-c2nc3cccc(F)c3[nH]2)C1` (stereo not drawn) [Compound 2-53, 1-[3-(4-fluoro-1H-1,3-benzodiazol-2-yl)-5-[3-(1H-imidazol-1-yl)phenyl]pyridin-4-yl]-3-methylpyrrolidin-3-amine], the EC50 was 10 to 100 nM.
In the case of `N#Cc1c(Cl)cccc1-c1cncc(-c2nc3cccc(F)c3[nH]2)c1N1CC[C@H](N)C1` [Compound 2-47, 2-{4-[(3S)-3-aminopyrrolidin-1-yl]-5-(4-fluoro-1H-1,3-benzodiazol-2-yl)pyridin-3-yl}-6-chlorobenzonitrile], the EC50 is reported as < 10 nM.
For `CNC(=O)c1cccc2nc(-c3cncc(-c4cccc(C#N)c4)c3N3CC[C@H](N)C3)[nH]c12` [Compound 2-90, 2-{4-[(3S)-3-aminopyrrolidin-1-yl]-5-(3-cyanophenyl)pyridin-3-yl}-N-methyl-1H-1,3-benzodiazole-4-carboxamide], the EC50 was > 1000 nM.
`Cc1cc(F)cc(-c2cncc(-c3nc4cc(C#N)cc(F)c4[nH]3)c2N2CC(CN)C2)c1` [Compound 1-16, 2-{4-[3-(aminomethyl)azetidin-1-yl]-5-(3-fluoro-5-methylphenyl)pyridin-3-yl}-4-fluoro-1H-1,3-benzodiazole-6-carbonitrile] was tested, and the EC50 was 100 to 1000 nM.
Compound `CCOc1ccc(-c2cncc(-c3nc4c(F)cc(F)cc4[nH]3)c2N2CC(C(C)N)C2)cc1F` (stereo not drawn) [Compound 1-72, 1-{1-[3-(4,6-difluoro-1H-1,3-benzodiazol-2-yl)-5-(4-ethoxy-3-fluorophenyl)pyridin-4-yl]azetidin-3-yl}ethan-1-amine] has an EC50 of 10 to 100 nM.
With `CON=Cc1cc(F)cc(-c2cncc(-c3nc4c(F)cccc4[nH]3)c2N2CC[C@H](N)C2)c1` [Compound 2-9, (3S)-1-[3-(4-fluoro-1H-1,3-benzodiazol-2-yl)-5-{3-fluoro-5-[(methoxyimino)methyl]phenyl}pyridin-4-yl]pyrrolidin-3-amine] the EC50 was 10 to 100 nM.
Work on `N#Cc1cccc(-c2cncc(-c3nc4c(F)cccc4[nH]3)c2N2CC(N)C(C(F)(F)F)C2)c1` (stereo not drawn) [Compound 2-33, 3-{4-[3-amino-4-(trifluoromethyl)pyrrolidin-1-yl]-5-(4-fluoro-1H-1,3-benzodiazol-2-yl)pyridin-3-yl}benzonitrile] yielded an EC50 of 100 to 1000 nM.
`Cc1c(Cl)cccc1-c1cncc(-c2nc3cc(F)cc(F)c3[nH]2)c1N1CC(CN)C1` [Compound 1-66, 1-{1-[3-(3-chloro-2-methylphenyl)-5-(4,6-difluoro-1H-1,3-benzodiazol-2-yl)pyridin-4-yl]azetidin-3-yl}methanamine] was tested, and the EC50 was 10 to 100 nM.
In the case of `Cc1cc(F)cc(-c2cncc(-c3nc4cc(Cl)cc(F)c4[nH]3)c2N2CC(CN)C2)c1` [Compound 1-18, 1-{1-[3-(6-chloro-4-fluoro-1H-1,3-benzodiazol-2-yl)-5-(3-fluoro-5-methylphenyl)pyridin-4-yl]azetidin-3-yl}methanamine], the EC50 is reported as 10 to 100 nM.
With `N#Cc1cccc(-c2cncc(-c3nc4c(F)cccc4[nH]3)c2N2C[C@@H](N)[C@H](O)C2)c1` (racemic) [Compound 2-81, 3-{4-[trans-3-amino-4-hydroxypyrrolidin-1-yl]-5-(4-fluoro-1H-1,3-benzodiazol-2-yl)pyridin-3-yl}benzonitrile] the EC50 was 10 to 100 nM.
`N[C@H]1CCN(c2c(-c3cc(F)cc(Cl)c3)cncc2-c2nc3ccc(Cl)cc3[nH]2)C1` [Compound 2-95, (3S)-1-[3-(5-chloro-1H-1,3-benzodiazol-2-yl)-5-(3-chloro-5-fluorophenyl)pyridin-4-yl]pyrrolidin-3-amine] gave an EC50 of 10 to 100 nM.
With `N#Cc1c(F)cccc1-c1cncc(-c2nc3c(F)ccc(F)c3[nH]2)c1N1CC[C@H](N)C1` [Compound 2-40, 2-{4-[(3S)-3-aminopyrrolidin-1-yl]-5-(4,7-difluoro-1H-1,3-benzodiazol-2-yl)pyridin-3-yl}-6-fluorobenzonitrile] the EC50 was 10 to 100 nM.

Same assay, conditions: SST5 over SST2, class symbols
With `COc1cccc(-c2cncc(-c3nc4cccc(F)c4[nH]3)c2N2CCC(C)(N)C2)c1` (stereo not drawn) [Compound 2-11, 1-[3-(4-fluoro-1H-1,3-benzodiazol-2-yl)-5-(3-methoxyphenyl)pyridin-4-yl]-3-methylpyrrolidin-3-amine] the “Fold selectivity for SST5 vs SST2” value was “+++ (+++=≥500)”.
